Paper PMC6017844, “4-Thiazolidinone Derivatives as MMP Inhibitors in Tissue Damage: Synthesis, Biological Evaluation and Docking Studies” (Molecules : A Journal of Synthetic Chemistry and Natural …, 2018)

Legend:
human recombinant MMP-9 = target: T1, human recombinant MMP-9 (Homo sapiens, UniProt P14780); test: MMP-9 fluorimetric assay; format: biochemical; conditions: catalytic domain of MMP-9 10 nM, substrate 350 nM, 25 °C, pH 7; mean ± SD (n = 3); n.a. = not active; read-out: IC50 Value
T1 construct: using 10 nM of proteolytic enzyme (catalytic domains of MMP-9 (Biomol, Inc.)); purchased Biomol, Inc
Protocol: The synthesized compounds 13–19, 22 and 23 were tested for their in vitro ability to inhibit human recombinant MMP-9. Table 2 reports the results of this inhibition assay, expressed as IC50 (µM). […] We used as positive control a potent MMPs inhibitor, NNGH (N-isobutyl-N-(4-methoxy-phenylsulfonyl)glycylhydroxamic acid).
The compounds were evaluated for their ability to inhibit the hydrolysis of fluorescence-quenched peptide substrate Mca-Pro-Leu-Gly-Leu-Dpa-Ala-Arg-NH2 (Biomol, Inc., Enzo Life Sciences, Inc., Farmingdale, NY, USA). The MMP-9 assays were performed in 50 mM HEPES buffer containing 5 mM CaCl2, 0.1 mM ZnCl2, 0.05% Brij-35, at pH 7, using 10 nM of proteolytic enzyme (catalytic domains of MMP-9 (Biomol, Inc.) and 350 nM of peptide substrate. The enzyme was incubated at 25 °C with increasing concentration (0.0004, 0.004, 0.04, 0.4, 4, 40, 400 µM) of compounds, and the fluorescence (excitation max 328 nm; emission max 393 nm) was measured for 3 min after the addition of the substrate using a Victor Wallac 1420 Multilabel Counters fluorimeter (Perkin Elmer, Waltham, MA, USA). The fluorescence values of the samples were plotted against the time with a linear regression fit, using the Origin software, version 7 (Origin Lab Corporation, Northampton, MA, USA). The slope of the line value for each inhibitor concentrations was obtained where an increase of the slope corresponds to a decrease of inhibitory activity. Subsequently, the IC50 values were obtained from a non-linear regression procedure (log inhibitor vs. response) with a variables slope of the regression line (Y) and the molar inhibitor concentration (X), using the software Origin®7 (Origin Lab Corporation). The IC50 value was obtained from the equation Y = P1/(1 + X/P2). NNGH (N-Isobutyl-N-(4-methoxyphenylsulfonyl)glycylhydroxamic acid) a potent MMPs inhibitor was used as a positive control.

[1] = Oxygen Radical Absorbance Capacity (ORAC) assay; conditions: fluorescein 10 nM, AAPH 100 mM, 37 °C, pH 7.0; mean ± SD (n = 3); Trolox = 1 ORAC Units
Source text: Free radicals and ROS are highly reactive molecules that are generated by normal cellular processes. They react with cellular components, damaging DNA, carbohydrates, proteins, and lipids causing cellular and tissue injury. Although organisms have developed complex antioxidant systems to protect themselves from oxidative substances, an excess of ROS production can lead to inflammation and several disease state. ORAC test measures both lipophilic and hydrophilic antioxidant capacity and determines the ability of antioxidants to protect proteins from damage caused by free radicals. ORAC assay has been widely accepted as a standard in vitro to measure the antioxidant activity of synthetic compounds, measuring their capacity to transfer hydrogen atom. The assay measures the loss of fluorescence over time due to peroxyl-radical formation by the breakdown of 2,2′-azobis-2-methyl-propanimidamide dihydrochloride (AAPH). 6-Hydroxy-2,5,7,8-tetramethylchroman-2-carboxylic acid (Trolox), a water soluble vitamin E analog, is a positive control that inhibits the fluorescein decay in a dose dependent manner. The ORAC assay is a kinetic assay measuring fluorescein decay and antioxidant protection over time.
The ORAC assay was performed as previously reported by Cao et al.. The measurements were carried out on a Wallac 1420 Victor^3 96-well plate reader (EG & Wallac, Turku, Finland) with fluorescence filter ([…]). Fluorescein (10 nM) was the fluorescence probe and target molecule for free radical attack from AAPH (100 mM) as peroxyl radical generator. The reaction was conducted at 37 °C at pH 7.0 with Trolox (12.5 μM) as control standard and phosphate buffer as blank. Compounds 13–19 and 22–23 were appropriately diluted with DMSO/buffer (1:10) prior to analysis. The fluorescein fluorescence was recorded every 2 min after addition of AAPH. All measurements were expressed relative to the initial reading. One blank, one standard, and a maximum of 10 samples were analyzed at the same time. Each measure was repeated at least three times. The ORAC value refers to the net protection area under the quenching curve of fluorescein in the presence of an antioxidant. The final results (ORAC value) were calculated and expressed using Trolox equivalents (TE) per gram of extract (TE/g):ORAC value (μM) = K(S sample − S blank)/(S Trolox − S blank)(1) where K is a sample dilution factor, S is the area under the fluorescence decay curve of the sample, Trolox or blank. This area was calculated with Origin®7 (OriginLab Corporation, Northampton, MA, USA).

T1 sequence (P14780 107-444 limits assumed): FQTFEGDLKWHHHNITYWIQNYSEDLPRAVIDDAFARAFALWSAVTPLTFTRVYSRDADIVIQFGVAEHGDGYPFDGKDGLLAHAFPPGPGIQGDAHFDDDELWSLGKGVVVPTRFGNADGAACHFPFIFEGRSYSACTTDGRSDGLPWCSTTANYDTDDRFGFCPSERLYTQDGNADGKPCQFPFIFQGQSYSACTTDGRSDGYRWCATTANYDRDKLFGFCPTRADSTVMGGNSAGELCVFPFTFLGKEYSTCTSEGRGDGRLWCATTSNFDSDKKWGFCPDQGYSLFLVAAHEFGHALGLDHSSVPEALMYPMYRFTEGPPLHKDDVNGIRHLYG

melting point [°C] | IC50 (human recombinant MMP-9) [µM] | SMILES | ORAC UNITs [1]
185 to 186 | – | CC(C(=O)NN1C(=O)CSC1c1ccc(F)cc1)c1nsc2ccccc12 (centres unmarked) (hydrate or solvate) [Compound 16, 2-(1,2-Benzothiazol-3-yl)-N-[2-(4-fluorophenyl)-4-oxo-1,3-thiazolidin-3-yl]propanamide] | –
208 to 209 | – | CC(C(=O)NN1C(=O)CSC1c1ccc([N+](=O)[O-])cc1)c1nsc2ccccc12 (centres unmarked) (hydrate or solvate) [Compound 19, 2-(1,2-Benzothiazol-3-yl)-N-[2-(4-nitrophenyl)-4-oxo-1,3-thiazolidin-3-yl]propanamide] | –
– | 7.99 ± 0.65 | CC(C(=O)NN1C(=O)CSC1c1ccccc1)c1nsc2ccccc12 (centres unmarked) [Compound 13, 2-(1,2-Benzothiazol-3-yl)-N-(4-oxo-2-phenyl-1,3-thiazolidin-3-yl)propanamide] | 0.61 ± 0.14 ORAC unit (μmol of Trolox equi
– | – | CC(C(=O)NN1C(=O)CSC1c1ccc(C(F)(F)F)cc1)c1nsc2ccccc12 (centres unmarked) [Compound 17, 2-(1,2-Benzothiazol-3-yl)-N-{4-oxo-2-[4-(trifluoromethyl)phenyl]-1,3-thiazolidin-3-yl}propanamide] | 0.27 ± 0.06 ORAC unit (μmol of Trolox equi
– | 17.2 ± 1.92 | CC(C(=O)NN1C(=O)CSC1c1ccc(F)cc1)c1nsc2ccccc12 (centres unmarked) [Compound 16, 2-(1,2-Benzothiazol-3-yl)-N-[2-(4-fluorophenyl)-4-oxo-1,3-thiazolidin-3-yl]propanamide] | 0.46 ± 0.20 ORAC unit (μmol of Trolox equi
239 to 240 | – | CC(C(=O)NN1C(=O)CSC1c1ccccc1)c1nsc2ccccc12 (centres unmarked) (hydrate or solvate) [Compound 13, 2-(1,2-Benzothiazol-3-yl)-N-(4-oxo-2-phenyl-1,3-thiazolidin-3-yl)propanamide] | –
– | 16.1 ± 1.23 | CC(C(=O)NN1C(=O)CSC1c1ccc(Cl)cc1)c1nsc2ccccc12 (centres unmarked) [Compound 18, 2-(1,2-Benzothiazol-3-yl)-N-[2-(4-chlorophenyl)-4-oxo-1,3-thiazolidin-3-yl]propanamide] | 0.47 ± 0.23 ORAC unit (μmol of Trolox equi
187 to 188 | – | CC(C(=O)NN1C(=O)CSC1c1ccc(Cl)cc1)c1nsc2ccccc12 (centres unmarked) (hydrate or solvate) [Compound 18, 2-(1,2-Benzothiazol-3-yl)-N-[2-(4-chlorophenyl)-4-oxo-1,3-thiazolidin-3-yl]propanamide] | –
– | 9.01 ± 0.45 | Cc1ccc(C2SCC(=O)N2NC(=O)C(C)c2nsc3ccccc23)cc1 (centres unmarked) [Compound 14, 2-(1,2-Benzothiazol-3-yl)-N-[2-(4-methylphenyl)-4-oxo-1,3-thiazolidin-3-yl]propanamide] | 0.40 ± 0.06 ORAC unit (μmol of Trolox equi
145 to 147 | – | CC(C(=O)NN1C(=O)CSC1c1ccc(C(F)(F)F)cc1)c1nsc2ccccc12 (centres unmarked) (hydrate or solvate) [Compound 17, 2-(1,2-Benzothiazol-3-yl)-N-{4-oxo-2-[4-(trifluoromethyl)phenyl]-1,3-thiazolidin-3-yl}propanamide] | –
– | 6.82 ± 0.95 | COc1ccc(C2SCC(=O)N2NC(=O)C(C)c2nsc3ccccc23)cc1 (centres unmarked) [Compound 15, 2-(1,2-Benzothiazol-3-yl)-N-[2-(4-methoxyphenyl)-4-oxo-1,3-thiazolidin-3-yl]propanamide] | 0.66 ± 0.12 ORAC unit (μmol of Trolox equi
170 | – | COc1ccc(C2SCC(=O)N2NC(=O)C(C)c2nsc3ccccc23)cc1 (centres unmarked) (hydrate or solvate) [Compound 15, 2-(1,2-Benzothiazol-3-yl)-N-[2-(4-methoxyphenyl)-4-oxo-1,3-thiazolidin-3-yl]propanamide] | –
– | 22.1 ± 1.42 | CC(C(=O)NN1C(=O)CSC1c1ccc([N+](=O)[O-])cc1)c1nsc2ccccc12 (centres unmarked) [Compound 19, 2-(1,2-Benzothiazol-3-yl)-N-[2-(4-nitrophenyl)-4-oxo-1,3-thiazolidin-3-yl]propanamide] | 0.40 ± 0.17 ORAC unit (μmol of Trolox equi

SMILES | melting point [°C] | IC50 (human recombinant MMP-9) [µM] | ORAC UNITs [1]
COc1ccc(S(=O)(=O)N(CC(=O)NO)CC(C)C)cc1 [NNGH, N-isobutyl-N-(4-methoxy-phenylsulfonyl)glycylhydroxamic acid, reference compound] | – | 0.0065 ± 0.00025 | –
